According to patent publication US20070092551A1, “Therapeutic agent” (TAKARA BIO INC., priority 2003, published 2007):

Assays:
3T3-L1 cells = experiment: Induction of adipocyte differentiation (amount of triglyceride biosynthesis); format: cell-based; details: Mus musculus, 3T3-L1, X=(S−N)/(P−N) of amount of triglyceride, P=insulin positive control, read-out: Action for Induction of Differentiation
In short: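 3T3-L1 cells were grown 7 days in DMEM/10% FBS/200 μM ascorbic acid, then given test compound with 0.25 μM dexamethasone for 45 h, then compound alone for 7 days, re-dosed at medium changes. Hexane:isopropanol-extracted triglyceride was measured in duplicate; X=(S−N)/(P−N) versus DMSO (N) and insulin (P), ranked +++ to +/−.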

[1] = tested on: mature adipocytes (3T3-L1 cells); experiment: Enhancing action on glucose uptake (2-deoxyglucose) into mature adipocytes; format: cell-based; details: Mus musculus, 3T3-L1, X=(S−N)/(P−N) of 2-deoxyglucose uptake, P=insulin 1 μg/mL, read-out: Enhancing Action on Glucose Uptake

CC(C)=CCC/C(C)=C/Cc1c(OCc2ccccc2)ccc(C(=O)/C=C/c2ccc(O)cc2)c1O [Compound (C073), 4,2′-dihydroxy-3′-geranyl-4′-benzyloxychalcone]
activation at 3 µM (3T3-L1 cells): 15 to 30% | activation at 3 µM [1]: 15 to 30% | activation at 10 µM [1]: 15 to 30%

CC(=O)c1ccc(OC2CCCCO2)c(CC=C(C)C)c1O (stereo not shown) [Compound (C044), 2′-hydroxy-3′-prenyl-4′-tetrahydropyranyloxyacetophenone]
activation at 3 µM (3T3-L1 cells): 30 to 60% | activation at 10 µM (3T3-L1 cells): 60 to 100% | activation at 10 µM [1]: 30 to 60% | activation at 30 µM [1]: > 100%

COc1ccc(C(C)=O)c(O)c1C/C=C(\C)CC/C=C(\C)CCC=C(C)C [Compound (C052), 2′-hydroxy-3′-farnesyl-4′-methoxyacetophenone]
activation at 10 µM (3T3-L1 cells): 30 to 60% | activation at 3 µM [1]: 15 to 30% | activation at 10 µM [1]: 30 to 60% | activation at 30 µM [1]: 30 to 60%

COc1ccc(C(=O)/C=C/c2ccc(OC(C)=O)cc2)c(O)c1CC=C(C)C [Compound (C078), 4-acetoxy-2′-hydroxy-3′-prenyl-4′-methoxychalcone]
activation at 10 µM (3T3-L1 cells): 30 to 60% | activation at 30 µM (3T3-L1 cells): > 100% | activation at 10 µM [1]: 15 to 30% | activation at 30 µM [1]: > 100%

COc1ccc(C(=O)/C=C/c2ccc(OC(C)=O)cc2)c(OC(C)=O)c1CC=C(C)C [Compound (C032), 4,2′-diacetoxy-3′-prenyl-4′-methoxychalcone]
activation at 1 µM (3T3-L1 cells): 60 to 100% | activation at 3 µM (3T3-L1 cells): > 100% | activation at 10 µM (3T3-L1 cells): > 100% | activation at 3 µM [1]: > 100% | activation at 10 µM [1]: > 100% | activation at 30 µM [1]: > 100%

COc1ccc(C(=O)/C=C/c2ccc(O)cc2)c(O)c1Cc1ccccc1 [Compound (C056), 4,2′-dihydroxy-3′-benzyl-4′-methoxychalcone]
activation at 1 µM (3T3-L1 cells): 15 to 30% | activation at 3 µM (3T3-L1 cells): 30 to 60% | activation at 10 µM (3T3-L1 cells): > 100% | activation at 3 µM [1]: 15 to 30% | activation at 10 µM [1]: > 100% | activation at 30 µM [1]: > 100%

CCOc1ccc(C(C)=O)c(O)c1CC=C(C)C [Compound (C047), 2′-hydroxy-3′-prenyl-4′-ethoxyacetophenone]
activation at 10 µM (3T3-L1 cells): 30 to 60% | activation at 30 µM (3T3-L1 cells): 60 to 100% | activation at 3 µM [1]: 30 to 60% | activation at 10 µM [1]: 60 to 100% | activation at 30 µM [1]: > 100%

CC(C)=CCCC(C)(O)C1Cc2c(ccc(C(=O)/C=C/c3ccc(O)cc3)c2O)O1 (stereo not shown) [TB3, 1-[2,3-dihydro-4-hydroxy-2-(1-hydroxy-1,5-dimethyl-4-hexenyl)-benzofuran-5-yl]-3-(4-hydroxyphenyl)-2-propen-1-one]
activation at 3 µM (3T3-L1 cells): > 100% | activation at 10 µM (3T3-L1 cells): > 100% | activation at 3 µM [1]: 30 to 60% | activation at 10 µM [1]: > 100%

COc1ccc(C(C)=O)c(O)c1CCC(C)C [Compound (C041), 2′-hydroxy-3′-(3-methylbutyl)-4′-methoxyacetophenone]
activation at 3 µM (3T3-L1 cells): 30 to 60% | activation at 10 µM (3T3-L1 cells): > 100% | activation at 30 µM [1]: > 100%

COc1ccc(C(C)=O)c(O)c1C/C=C(\C)CCC=C(C)C [Compound (C038), 2′-hydroxy-3′-geranyl-4′-methoxyacetophenone]
activation at 3 µM (3T3-L1 cells): 30 to 60% | activation at 10 µM (3T3-L1 cells): > 100% | activation at 10 µM [1]: 30 to 60% | activation at 30 µM [1]: 60 to 100%
